Assay results taken from patent US20170304460A1, “METHOD OF CONJUGATING A POLYPEPTIDE” (MedImmune, LLC, priority 2014, published 2017).
Read-outs that look alike come from different tables or passages of the source.

Key:
T289C mAb = test: Conjugation kinetics of x-maleimide-PEG-biotins with T289C mAb; type: physicochemical; conditions: for Second order rate constant (k2): conjugation to T289C mAb
Method: x-Maleimide-PEG-biotins were conjugated to mAb (comprising a T289C mutation of the Fc) in several steps. […] Reduced mAb was transferred to a slide-a-lizer dialysis cassette (10K MWCO) and dialyzed against PBS, 1 mM EDTA, pH 7.2-7.8, 4° C. for 24 hr with several buffer changes. Reduced mAb was oxidized to reform internal disulfides by addition of dehydroascorbic acid (21 μL of 50 mM stock in DMSO, 1.1 μmol, 20 eq) followed by gentle mixing for 4 hr at room temperature. Oxidized mAb solution was adjusted to the desired pH by addition of 1M sodium phosphate (monobasic for pH 5.5, dibasic for pH 8.6, or a stock adjusted to pH 7.4) to a final phosphate concentration of 100 mM and mAb concentration of 1.3 mg/mL. Next, 1.15 mL of mAb solution (1.5 mg, 10 nmol, 1 eq) was aliquoted into a vial followed by addition of x-maleimide-PEG-biotin stock solution (2 μL of a 10 mM stock solution in DMAc, 20 nmol, 2 eq). The reaction mixture was briefly vortexed and further incubated for the desired amount of time followed by addition of N-acetly cysteine (10 μL of a 100 mM solution in water, 1 μmol, 100 eq) and further incubation for 15 minutes to quench unreacted maleimide. All conjugation reactions were performed at room temperature (22° C.) under ambient atmosphere. Note that 2 eq x-maleimide-PEG-biotin relative to mAb=1 eq x-maleimide-PEG-biotin relative to free cysteine contained in the mAb. This general procedure was modified as needed to achieve desired reaction stoichiometry (i.e. different maleimide:mAb feeds).
ADC samples were analyzed using an Agilent 6520B Q-TOF mass spectrometer equipped with a RP-HPLC column (Agilent Poroshell 300SB-C3; 5 um, 2.1 mm×75 mm; Part#660750-909). High-performance liquid chromatography (HPLC) parameters were as follows: flow rate, 0.4 ml/min; mobile phase A was 0.1% (v/v) formic acid in HPLC-grade H2O, and mobile phase B was 0.1% (v/v) formic acid in acetonitrile. The column was equilibrated in 90% A/10% B, which was also used to desalt the ADC samples, followed by elution in 40% A/60% B. Mass spec data were collected for 100-3000 m/z, positive polarity, a gas temperature of 350° C., a nebulizer pressure of 48 lb/in^2, and a capillary voltage of 5,000 V. Data were analyzed using vendor-supplied (Agilent v.B.04.00) MassHunter Qualitative Analysis software and peak intensities from deconvoluted spectra were used to derive the relative proportion of reactants and products; and reaction kinetics.
Half-lives were calculated from the derived rate constants using Equation 4 for pseudo-first order reactions (hydrolysis and deconjugation) and Equation 5 for second-order reactions (conjugation): […]
Conjugation data were analyzed in units of molar concentration to determine kinetic constants. Second order rate constants were determined from the slopes of curves generated from plotting 1/[SH] versus time and linear regression analysis.

[1] = Maleimide hydrolysis kinetics (pre-incubation in buffer, then reaction with T289C mAb); type: physicochemical; conditions: for half-life at 1 mM: sodium phosphate buffer, read-out: Hydrolysis T1/2 (maleimide) (converted)
Method: x-Maleimide-PEG-biotins were pre-incubated in buffer solutions of different pH to assess their stability and thiol conjugation efficiency over time. This assay indirectly monitors maleimide hydrolysis because hydrolyzed maleimides are not reactive towards thiols. Antibody bearing the T289C FC mutation was reduced and oxidized as described above and adjusted to 1.5 mg/mL in PBS containing 50 mM sodium phosphate pH 7.4. Maleimide solutions were prepared in buffer (100 mM sodium phosphate pH 5.5, 7.4, 8.6) by combining 20 μL x-maleimide-PEG-biotin solution (10 mM solution in DMAc) with 180 μL buffer at the desired pH (final x-maleimide-PEG-biotin concentration=1 mM) and incubated at 22° C. for determined time intervals prior to reaction with mAb. For conjugation reactions 267 μL mAb (1.5 mg/mL, 2.7 nmol, 1 eq) was combined with 5.3 μL buffer-incubated x-maleimide-PEG-biotin solution (5.4 nmol, 2 eq). […] The conjugation reaction proceeded at 22° C. for 1.5 hr at pH 7.4. After reaction samples were reduced with DTT at room temperature for 5 min and analyzed by mass spectrometry. Percent conjugation was calculated using equation 1.
Maleimide hydrolysis data were also analyzed in units of molar concentration to determine kinetic constants. Pseudo 1st order rate constants were determined from the slopes of curves generated from plotting ln [maleimide] versus time and linear regression analysis.

[2] = pH 7.0; cited from earlier work
[3] = pH 7.0; cited from earlier work; remark: listed apart in the source
[4] = cited from earlier work
[5] = BME challenge assay: sensitivity of PEG-biotin T289C mAb conjugates to thiol exchange in buffer containing thiols; type: physicochemical; conditions: pH 7.2, 37° C.
Method: Biotin-mAb conjugates were incubated in aqueous buffer containing β-mercaptoethanol (BME) to challenge the thiosuccinimide linkage against deconjugation. x-Maleimide-PEG-biotins were conjugated to mAb containing the T289C mutation as described above with minor modification. Conjugation reactions were performed at 1 equivalent x-PEG-maleimide:thiol for 15 min at 22° C. followed immediately by dilution to 0.2 mg/mL (1.33 μM mAb) with 1×PBS pH 7.2 containing 0.5 mM EDTA. The N-acetyl cysteine quenching step was omitted. For BME-containing samples, BME was added to a final concentration of 1% v/v (143 mM). Samples were further incubated at 37° C. under ambient atmosphere without stirring. Aliquots were removed at various time points, sterile filtered, reduced with DTT and then analyzed by LC/MS. Percent conjugated mAb and thiosuccinimide hydrolysis were determined from peak heights of mass spectra using Equation 1 and Equation 2, respectively. Deconjugated mAb and thiosuccinimide hydrolysis data were plotted as ln [concentration] vs. time (s) to obtain the pseudo-first order rate constants from the slope of the bestfit line.

[6] = Stability of mAb-biotin conjugates in the presence of free thiol (BME) after mild hydrolysis; type: physicochemical; conditions: pH 7.2, 37° C.
Method: Biotin-mAb conjugates were incubated in aqueous buffer containing β-mercaptoethanol (BME) to challenge the thiosuccinimide linkage against deconjugation. In this experiment, thiosuccinimide conjugates were subjected to a brief incubation at mildly basic conditions to facilitate thiosuccinimide hydrolysis before the stability challenge. x-Maleimide-PEG-biotins were conjugated to mAb containing the T289C mutation as described above with minor modification. Conjugation reactions were performed at 1 equivalent x-PEG-maleimide:thiol for 15 min at 22° C. followed quenching with N-acetyl cysteine (100 eq rel. to mAb) and further reaction for 5 minutes. Reaction mixtures were adjusted to pH 8.6 by addition of 10% v/v sodium phosphate (1M, dibasic) and then incubated at 37° C. for 1 hr. Reactions were then dialyzed against PBS (pH 7.2) containing 0.5 mM EDTA for 24 hr at 4° C. After dialysis, mAb concentrations were confirmed by A280 measurement (NanoDrop) and samples were diluted to 0.2 mg/mL (1.33 μM mAb) with 1×PBS pH 7.2 containing 0.5 mM EDTA. For BME-containing samples, BME was added to a final concentration of 1% v/v (143 mM). […] Aliquots were removed at various time points, sterile filtered, reduced with DTT and then analyzed by LC/MS. Percent conjugated mAb and thiosuccinimide hydrolysis was determined from peak heights of mass spectra using Equation 1 and Equation 2, respectively. […]

[7] = Thiosuccinimide hydrolysis kinetics for PEG-BCN conjugates; type: physicochemical; conditions: mAb-PEG-BCN conjugates at T289C, pH 7.2, 22° C.
Method: x-Maleimide-PEG-BCN-mAb conjugates were incubated in buffer solutions and monitored by LC/MS over time to observe thiosuccinimide hydrolysis. Conjugated T289C mAbs were diluted to 0.22 mg/mL with 1×PBS containing 0.5 mM EDTA, pH 7.2 and then dithiothreitol was added (0.5 M stock in water) to achieve a final concentration of 42 mM. Samples were placed into the LC/MS autosampler at 22° C. and injected periodically. Thiosuccinimide hydrolysis was confirmed by addition of 18 amu to the mAb conjugate peak in the mass spectrum. Semi-quantitative analysis of hydrolysis was performed using peak intensities in deconvoluted mass spectra and equation 3, which includes background subtraction using the T=0 measurement. Data was then converted into loss of thiosuccinimide (M) over time and plotted as ln [thiosuccinimide] vs seconds. The slope of the best fit line yielded the pseudo first-order rate constant for thiosuccinimide hydrolysis.

[8] = Reactivity of mAb-BCN conjugate with AC4GlcNAz after storage; type: physicochemical
Method: N-phenyl-maleimide-PEG-BCN-mAb conjugate (100 μL of 1.3, mg/mL solution in PBS with 0.5 mM EDTA, 0.87 nmol) was combined with AC4GlcNAz (1 μL of 500 mM stock in DMSO, 500 nmol). The reaction solution was incubated at room temperature without stirring for 1 hr at 22° C. For long-term reactivity studies, mAb-BCN conjugate was stored at 4° C. in PBS with 0.5 mM EDTA, pH 7.2 and aliquots were removed and reacted with AC4GlcNAz as described above. Conjugates were analyzed by reduced glycosylated mass spectrometry and conjugation efficiency was determined using equation 1.

2-fluoro-5-maleimidophenyl-PEG7-biotin [F-phenyl maleimide-PEG-biotin]
thiol conjugation is complete in (T289C mAb; pH 8.6): 15 s

O=C(CCCCC1SCC2NC(=O)NC21)NCCOCCOCCOCCOCCOCCOCCOCCNC(=O)CCN1C(=O)C=CC1=O (centres unmarked) [Alkyl maleimide-PEG-biotin, maleimidoproprionyl-PEG7-biotin, reference compound]
Psuedo first order rate constant (kobs), maleimide hydrolysis ([1]; pH 7.4, 22° C.): 2.3e-05 s⁻¹
Psuedo first order rate constant (kobs), maleimide hydrolysis ([1]; pH 8.6, 22° C.): 0.0002 s⁻¹
half-life at 1 mM ([1]; pH 7.4, 22° C.): 7.7 h
half-life at 1 mM ([1]; pH 8.6, 22° C.): 1 h
Second order rate constant (k2) (T289C mAb; pH 5.5, 22° C.): 13 M⁻¹ s⁻¹
Second order rate constant (k2) (T289C mAb; pH 7.4, 22° C.): 500 M⁻¹ s⁻¹
Second order rate constant (k2) (T289C mAb; pH 8.6, 22° C.): ~28000 M⁻¹ s⁻¹

O=C(CCCCC1SCC2NC(=O)NC21)NCCOCCOCCOCCOCCOCCOCCOCCNC(=O)c1cc(N2C(=O)C=CC2=O)ccc1F (centres unmarked) [F-phenyl maleimide-PEG-biotin, 2-fluoro-5-maleimidophenyl-PEG7-biotin]
Psuedo first order rate constant (kobs), maleimide hydrolysis ([1]; pH 7.4, 22° C.): 0.00017 s⁻¹
Psuedo first order rate constant (kobs), maleimide hydrolysis ([1]; pH 8.6, 22° C.): 0.0019 s⁻¹
half-life at 1 mM ([1]; pH 7.4, 22° C.): 1.1 h
half-life at 1 mM ([1]; pH 8.6, 22° C.): 0.1 h
Second order rate constant (k2) (T289C mAb; pH 5.5, 22° C.): 55.4 M⁻¹ s⁻¹
Second order rate constant (k2) (T289C mAb; pH 7.4, 22° C.): 4500 M⁻¹ s⁻¹
Second order rate constant (k2) (T289C mAb; pH 8.6, 22° C.): ~39000 M⁻¹ s⁻¹

CCN1C(=O)C=CC1=O [N-ethyl maleimide]
k2, reaction with cysteine [2]: 1620 M⁻¹ s⁻¹
k2, reaction with β-mercaptoethanol [3]: 710 M⁻¹ s⁻¹

O=C1C=CC(=O)N1c1ccccc1 [N-phenyl maleimide]
kobs, hydrolysis ([4]; pH 7.6, 25° C.): 7e-05 s⁻¹

O=C(CCCCC1SCC2NC(=O)NC21)NCCOCCOCCOCCOCCOCCOCCOCCNC(=O)Cc1ccc(N2C(=O)C=CC2=O)cc1 (centres unmarked) [Phenyl maleimide-PEG-biotin, maleimidophenylacetyl-PEG7-biotin]
Psuedo first order rate constant (kobs), maleimide hydrolysis ([1]; pH 7.4, 22° C.): 8.5e-05 s⁻¹
Psuedo first order rate constant (kobs), maleimide hydrolysis ([1]; pH 8.6, 22° C.): 0.00076 s⁻¹
half-life at 1 mM ([1]; pH 7.4, 22° C.): 2.3 h
half-life at 1 mM ([1]; pH 8.6, 22° C.): 0.3 h
Second order rate constant (k2) (T289C mAb; pH 5.5, 22° C.): 23.8 M⁻¹ s⁻¹
Second order rate constant (k2) (T289C mAb; pH 7.4, 22° C.): 1300 M⁻¹ s⁻¹
Second order rate constant (k2) (T289C mAb; pH 8.6, 22° C.): ~34000 M⁻¹ s⁻¹

O=C1C=CC(=O)N1 [maleimide]
kobs, hydrolysis ([4]; pH 8.38, 30° C.): 0.000151 s⁻¹

N-fluorophenyl thiosuccinimide
Max deconjugation + BME ([5]; 1% v/v BME): 10%
Max deconjugation − BME ([5]; without BME): None
Max deconjugation + BME ([6]; 1% v/v BME): None
Max deconjugation − BME ([6]; without BME): None

Phenyl thiosuccinimide
Psuedo first order rate constant (kobs), thiosuccinimide hydrolysis [7]: 1.9e-05 s⁻¹
Azide conjugation (BCN reactivity) ([8]; 1 day storage at 4° C.): quantitative
Azide conjugation (BCN reactivity) ([8]; 4 days storage at 4° C.): quantitative
Azide conjugation (BCN reactivity) ([8]; 7 days storage at 4° C.): quantitative
Azide conjugation (BCN reactivity) ([8]; 10 days storage at 4° C.): quantitative
Azide conjugation (BCN reactivity) ([8]; 15 days storage at 4° C.): quantitative
Azide conjugation (BCN reactivity) ([8]; 21 days storage at 4° C.): quantitative
time without loss of BCN reactivity ([8]; after conjugation and storage at 4° C.): > 21 days
